From patent US7348344B2, “Polysubstituted 1,1-pyridyloxycyclopropanamine compounds” (Les Laboratoires Servier, priority 2005, dated 2008) come the findings set out here.

Series [1] deals with release of acetylcholine in the prefrontal cortex. In words: In vivo measurement of the release of acetylcholine by intra-cortical microdialysis in the conscious Wistar rat. Also noted: dose or concentration left out as unconfirmed. The conditions noted are these: one hour after administration. On the procedure:
The systemic administration of nicotine and nicotinic agonists causes an increase, in vivo, of acetylcholine in various regions of the brain (Neurochem. Res., 1996, 21, 1181-1186; Eur. J. Pharmacol., 1998, 351, 181-188; Br. J. Pharmacol., 1999, 127, 1486-1494). A microdialysis probe is implanted in the median prefrontal cortex of male Wistar rats. Six or seven days after they have been implanted, the probes are perfused with Ringer's solution (NaCl 147 mM, KCl 2.7 mM, CaCl2 1.2 mM, MgCl2 1 mM, neostigmine 20 nM) at a flow rate of 1 μl/min, the animal being free to move. After 2 hours in the animal quarters, the product under test is administered by the intraperitoneal route. A group of control animals receives the solvent used for the product. The dialysates (30 μl) are then collected every 30 minutes for 4 hours in order to measure the cortical extra-synaptic concentrations of acetylcholine by means of HPLC with amperometric detection. The results are expressed in pg of acetylcholine/dialysate, and inter-group comparisons are carried out by means of analysis of variance using 2 factors (treatment×time), with measurements being repeated over time.

Series [2] concerns the target T1, type α4β2 central nicotinic receptors (Rattus norvegicus, UniProt P09483+P12390).
T1 construct: from tissue; host or cells: rat brain membranes
Kind of series: Displacement of binding of [3H]-cytisine on type α4β2 nicotinic receptors of rat brain. The conditions noted are these: rat brain membranes. Here is the method: This study, carried out according to the technique described in Molec. Pharmacol., 1990, 39; 9-12, is aimed at determining the affinity of compounds of the present invention for type α4β2 central nicotinic receptors.
Membranes (250 μg/ml) of rat brain are incubated (2 hours, 20° C.) in the presence of a series of concentrations (0.01-10 μM) of each compound of the present invention (diluted starting from a 10 mM stock solution in DMSO) and [^3H]-cytisine (S.A.: 1184 GBq/mmol: 2 nM) in phosphate buffer (NaH2PO4 20 mM, pH 7.4); final volume: 250 μl. The non-specific binding is determined by incubating membranes in the presence of 10 μM of (−)nicotine. The affinity of the compounds of the present invention for type α4β2 central nicotinic receptors is characterised by determination of the Ki.

For series [3], the system named is Wistar rat. Kind of series: Social recognition in the Wistar rat. In kind it is in vivo. The conditions noted are these: 10 mg/kg IP, second encounter after 2 hours. From the text:
Initially described in 1982 (J. Comp. Physiol., 1982, 96, 1000-1006), the social recognition test has subsequently been proposed by various authors (Psychopharmacology, 1987, 91, 363-368; Psychopharmacology, 1989, 97, 262-268) for studying the mnemocognitive effects of new compounds. The test is based on the natural expression of the olfactory memory of the rat and its natural tendency to forget and allows evaluation of memorisation, by recognition of a young congeneric animal, by an adult rat. A young rat (21 days), taken at random, is placed for 5 minutes in the cage housing an adult rat. With the aid of a video device, the experimenter observes the social recognition behaviour of the adult rat and measures its overall duration. The young rat is then removed from the adult rat's cage and is placed in its own cage until the second introduction. The adult rat is given the compound under test by the intraperitoneal route and, after 2 hours, is again brought into the presence (5 minutes) of the young rat. The social recognition behaviour is then observed again and its duration measured. The assessment criterion is the difference (T2−T1), expressed in seconds, between the “recognition” times of the 2 encounters.

Series [4] concerns NMRI mouse. In words: Abdominal contractions induced by phenyl-p-benzoquinone (PBQ) in the NMRI mouse. In kind it is in vivo. Particulars: 10 mg/kg IP. Here is the method:
Intraperitoneal administration of an alcoholic solution of PBQ causes abdominal cramps in the mouse (Proc. Soc. Exp. Biol., 1957, 95, 729-731). The cramps are characterised by repeated contractions of the abdominal musculature, accompanied by extension of the hind limbs. Most analgesics antagonise these abdominal cramps (Brit. J. Pharmacol. Chem., 1968, 32, 295-310). At t=0 min., the animals are weighed and the compound being studied is administered by the IP route. A group of control animals is given the solvent used for the compound. At t=30 min., an alcoholic solution of PBQ (0.2%) is administered by the IP route in a volume of 0.25 ml/mouse. Immediately after administration of the PBQ, the animals are placed in cylinders of plexiglass (L=19.5 cm; I.D.=5 cm). From t=35 min. to t=45 min., the animals' reaction is observed and the experimenter notes the total number of abdominal cramps per animal. The results are expressed as the percentage inhibition of the number of abdominal cramps measured in the control animals, at the active dose of the compound studied.

For orientation: melting point means the temperature of the solid-liquid transition. Broadly, the pKi is the Ki on a negative log10 scale, so that one unit is a factor of ten.

Structures are written as SMILES. pKi: −log10 of the molar value.

T1 sequence (P09483 31-630): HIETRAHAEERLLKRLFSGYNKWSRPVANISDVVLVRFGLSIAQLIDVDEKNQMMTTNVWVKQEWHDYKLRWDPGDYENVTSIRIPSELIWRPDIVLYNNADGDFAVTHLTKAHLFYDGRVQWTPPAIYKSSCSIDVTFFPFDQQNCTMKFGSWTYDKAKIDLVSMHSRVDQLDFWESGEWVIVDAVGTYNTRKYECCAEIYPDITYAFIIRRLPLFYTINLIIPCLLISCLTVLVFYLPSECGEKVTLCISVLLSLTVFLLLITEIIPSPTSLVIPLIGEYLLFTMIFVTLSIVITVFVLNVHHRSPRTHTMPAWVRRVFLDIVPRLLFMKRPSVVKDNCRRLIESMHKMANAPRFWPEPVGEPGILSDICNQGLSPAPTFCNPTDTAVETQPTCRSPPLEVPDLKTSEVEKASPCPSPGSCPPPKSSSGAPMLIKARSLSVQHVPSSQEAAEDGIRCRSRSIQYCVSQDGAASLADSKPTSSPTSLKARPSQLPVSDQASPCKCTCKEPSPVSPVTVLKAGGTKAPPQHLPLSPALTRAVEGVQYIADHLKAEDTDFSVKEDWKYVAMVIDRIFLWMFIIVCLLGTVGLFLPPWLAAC
T1 sequence (P12390 25-500): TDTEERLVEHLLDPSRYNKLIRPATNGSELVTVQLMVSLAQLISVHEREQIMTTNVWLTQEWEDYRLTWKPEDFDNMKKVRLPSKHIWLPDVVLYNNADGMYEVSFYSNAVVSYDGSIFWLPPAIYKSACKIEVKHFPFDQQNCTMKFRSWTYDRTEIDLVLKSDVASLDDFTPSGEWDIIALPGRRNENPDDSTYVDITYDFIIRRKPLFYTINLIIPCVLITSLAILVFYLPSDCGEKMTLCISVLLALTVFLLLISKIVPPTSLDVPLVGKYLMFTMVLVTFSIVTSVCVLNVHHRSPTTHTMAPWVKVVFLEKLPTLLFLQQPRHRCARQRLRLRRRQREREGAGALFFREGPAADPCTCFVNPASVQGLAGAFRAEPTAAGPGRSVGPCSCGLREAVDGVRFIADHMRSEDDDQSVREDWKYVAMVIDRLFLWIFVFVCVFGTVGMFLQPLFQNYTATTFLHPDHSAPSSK

Take `CN[C@@]1(COc2ccc(Cl)nc2)C[C@@H]1C.Cl` (single isomer, unassigned) [11]: the melting point lay within 185 to 190 °C. Regarding `CN[C@@]1(COc2ccc(Cl)nc2)C[C@@H]1C.Cl` (single isomer, unassigned) [12], the melting point lay within 188 to 192 °C. The same measure, in the same setting: the value for `CN[C@@]1(COc2cccnc2)C[C@H]1C.Cl.Cl` (single isomer, unassigned) [20] was 69 to 72 °C. For the compound `CN[C@@]1(COc2cccnc2)C[C@@H]1C.Cl.Cl` (single isomer, unassigned) [Example 2, (1S,2S)- or (1R,2R)-(−)-N,2-dimethyl-1-[(3-pyridinyloxy)methyl]cyclopropanamine Dihydrochloride], the melting point lay within 174 to 176 °C. The “increase in the release of acetylcholine in the prefrontal cortex” value in series [1] is “+86%”. This compound gave a pKi in series [2] of 7.16. For the same compound, the “difference (T2−T1) between recognition times” value in series [3] amounted to 38 s.

`CN[C@@]1(COc2cccnc2)C[C@H]1C.Cl.Cl` (single isomer, unassigned) [21] registered a melting point of 71 to 74 °C.

Regarding `CNC1(COc2cccnc2)CC1(C)C.O=C(O)/C=C/C(=O)O.O=C(O)/C=C/C(=O)O` (single isomer, unassigned) [26], the melting point fell in the range of 124 to 127 °C.

As to `C[C@H]1C[C@@]1(N)COc1ccc(Cl)nc1.Cl` (single isomer, unassigned) [Example 15, (1S,2S)- or (1R,2R)-(+)-1-{[(6-chloro-3-pyridinyl)oxy]methyl}-2-methylcyclopropanamine Hydrochloride], the “reduction of the number of abdominal cramps caused by PBQ” value in series [4] is recorded as −69%. In the case of `C[C@H]1C[C@@]1(N)COc1ccc(Cl)nc1.Cl` (single isomer, unassigned), the melting point lay within 183 to 186 °C. On the same count and under the same terms, the value for `CNC1(COc2cccnc2)CC1(C)C.O=C(O)/C=C/C(=O)O.O=C(O)/C=C/C(=O)O` (single isomer, unassigned) [Example 27] was 115 to 118 °C; that for `C[C@H]1C[C@]1(COc1ccc(Cl)nc1)N(C)C.Cl` (single isomer, unassigned) was 136 to 138 °C.

`C[C@H]1C[C@@]1(N)COc1cccnc1.Cl.Cl` (single isomer, unassigned) had a melting point below 75 °C.
